# Data: patent publication US12636299B2, “Terpenoid derivatives, pharmaceutical preparations containing these derivatives and their use in neuroprotection” (UNIVERZITA PALACKEHO V OLOMOUCI, priority 2020, dated 2026)
# Experiments:
# [1] = system: superoxide radical formation; test: Oxidative stress (superoxide radical formation, DHE) in 3NPA-induced model on SH-SY5Y; format: cell-based, human; conditions: 20 mM 3NPA = 100%, 24 hours
# Protocol: Similarly, to previous assay, cells grown on 96-multiwell plates at density 20000 cells per well underwent differentiation and treatment procedure with 3-nitropropionic acid (3NPA) in this model. After 24 hours of co-treatment with 20 mM 3NPA, superoxide radical's formation as a marker of oxidative stress was quantified by dihydroethidium according to Kim et al. (2017, J. Med. Food, 20, 140-151). Briefly, neuron-like SH-SY5Y cells were centrifuged at 500 g for 5 min and 30 s, then media were replaced by 10 μM DHE PBS solution and kept at room temperature for 30 min. After that, DHE was read at 500 nm/580 nm (excitation/emission) by Infinite M200 Pro (Tecan) microplate reader. DHE is cell permeable dye which is selective for superoxide radical detection. Overall oxidative stress achieved by 20 mM 3NPA was consider as 100% and thus the reduction in superoxide radical's formation (OS reducing effect) was determined. As shown in Table 6 and FIG. 2, 20 mM 3NPA induced 2.7-fold increase in superoxide radical's formation.
# [2] = system: glial A-172 cells; test: Cytotoxicity, Calcein AM viability assay on glial A-172 cells; format: cell-based, human; conditions: 48 hours
# [3] = system: astrocyte A-172 cells; test: 3NPA-induced model of Huntington's disease, astrocyte A-172 cells; format: cell-based, human; conditions: for Astro-protective effect (% of control): difference to 10 mM 3NPA, 48 h
# Protocol: (§1) Before application of toxin 3-nitropropionic acid (3NPA) for mimicking Huntington's disease, the 3NPA was dissolved in water and neutralized by sodium hydroxide. SH-SY5Y cells were seeded in the same density and differentiated by the procedure shown above. Astrocyte cells A-172 were also seeded as described in previous section. Both cell lines were co-treated by 3NPA (20 mM for SH-SY5Y cells, […]) and tested compounds at 0.1, 1 and 10 μM concentration for 48 h.
# [4] = system: human neuroblastoma cell line SH-SY5Y; test: Viability of differentiated SH-SY5Y in salsolinol-induced model of PD (Calcein AM); format: cell-based; conditions: for Neuroprotective effect (% of control): difference between 800 μM SAL and co-treatment group means, 24 hours
# Protocol: Similarly, as in previous “Safety test”, the SH-SY5Y cells were seeded at density 7000 cells/well. After 48 h differentiation, old 1% DMEM/F12 media was replaced by fresh media containing 800 μM salsolinol (SAL) and tested compounds in 0.1, 1 and 10 μM concentrations. N-acetylcystein were chosen as positive control. After 24 hours, the cell viability was measured by Calcein AM viability assay. The values in Table 2 show % of viability of all tested compounds relative to control. The control (medium with DMSO, <0.1% (v/v)) was postulated as 100% viability (see the first line of the table), while the SAL exposure lead to decrease of viability to 65.4±0.97%.
# [5] = system: human neuron-like SH-SY5Y cells; test: 3NPA-induced model of Huntington's disease, neuron-like SH-SY5Y cells; format: cell-based; conditions: difference to 20 mM 3NPA, 48 h
# Protocol: as §1
# [6] = system: caspase-3,7 activity; test: Caspase-3,7 activity in salsolinol-induced model of PD on SH-SY5Y (Ac-DEVD-AMC); format: cell-based, human; conditions: for Caspase-3,7 activity (% of 800 μM SAL control): percentages of control (800 μM SAL = 100), 24 hour co-treatment; for reduction of caspase-3,7 activity, in words: 800 μM SAL, compounds 3 and 4 at 10 μM compared with NAC
# Protocol: Similarly, as shown in previous assay, cells grew on 96 multiwell plates at density 20000 cells per well underwent differentiation and treatment procedure for salsolinol model. After 24 hour co-treatment with salsolinol, caspase-3,7 (casp-3,7) activity as marker of apoptosis was quantified by its substrate Ac-DEVD-AMC according to Carrasco et al. (2003, BioTechniques, 34, 1064-1067). In this model, overall casp-3,7 activity induced by 800 μM SAL was consider as 100% and thus the reduction in casp-3,7 was observed after treatment with the protective terpenoid derivatives. As shown in Table 4 and FIG. 2, 800 μM SAL induced 2.9-fold increase.
# [7] = system: SH-SY5Y human neuroblastoma cell line; test: Cytotoxicity, Calcein AM viability assay on neuron-like SH-SY5Y cells; format: cell-based; conditions: 24 h
# Protocol: The SH-SY5Y human neuroblastoma cell line obtained from ECACC (The European Collection of Authenticated Cell Cultures) was cultivated in Dulbecco's modified Eagle's Medium and Ham's F12 Nutrient Mixture (DMEM:F-12, 1:1), supplemented with 10% fetal bovine serum (FBS) and 1% penicillin and streptomycin at 37° C. in a humidified atmosphere 5% CO2, 95% humidity in passage limit up to ECACC+20. The assay was performed in 96-well microplate with 7000 SH-SY5Y cells per well. After 48 h, old DMEM/F12 media was removed by fresh media containing tested compounds at 0.1, 1 and 10 μM concentrations for 24 h. Glial cell line A-172 purchased from ATCC and grown in same conditions as SH-SY5Y cell line. A-172 cells were seeded in density 2000 cells per well and growing medium was replaced by treatment medium containing tested compounds in 0.1, 1 and 10 μM concentration; or in higher concentrations for R-LA or NAC positive controls for 48 hours. All tested compounds dissolved in DMSO were added into the medium. The maximum concentration of DMSO in media was kept below 0.1% (v/v). The cell viability was measured by Calcein AM (1 mg/ml ThermoFisher) viability assay. Solution of Calcein AM in PBS (0.75 μM) was pipetted to cells and incubated for 50 min. After that the fluorescence was measured at 488/517 nm (excitation/emission) using microplate reader Infinite M200 (TECAN). Calcein AM assay is based on the dye-intracellular-esterase cleavage of non-fluorescent dye (Calcein AM) by living cells to fluorescent dye (Calcein), while dying cells lose such ability. The values in Table 2 show the % of viability compared to control for all tested compounds. The results from DMSO control (medium with DMSO, <0.1% (v/v)) was postulated as 100% viability (see the first line of Table 2).
"Caspase-3,7 activity (% of 800 μM SAL control) ([6]; 1 μM) [%]","Caspase-3,7 activity (% of 800 μM SAL control) ([6]; 10 μM) [%]","reduction of caspase-3,7 activity, in words [6]",Compound,Superoxide radical formation (oxidative stress) % ([1]; 0.1 μM) [%],Superoxide radical formation (oxidative stress) % ([1]; 1 μM) [%],Superoxide radical formation (oxidative stress) % ([1]; 10 μM) [%],"viability, percentage of DMSO control ([2]; 0.1 μM) [%]","viability, percentage of DMSO control ([2]; 1 μM) [%]","viability, percentage of DMSO control ([2]; 10 μM) [%]","Astro-protective effect (% of control) ([3]; A-172, 0.1 μM)","Astro-protective effect (% of control) ([3]; A-172, 1 μM)","Astro-protective effect (% of control) ([3]; A-172, 10 μM)",Neuroprotective effect (% of control) ([4]; 0.1 μM),Neuroprotective effect (% of control) ([4]; 1 μM),Neuroprotective effect (% of control) ([4]; 10 μM),Neuro-protective effect (% of control) ([5]; 0.1 μM),Neuro-protective effect (% of control) ([5]; 1 μM),Neuro-protective effect (% of control) ([5]; 10 μM),"viability, percentage of DMSO control ([7]; 0.1 μM) [%]","viability, percentage of DMSO control ([7]; 1 μM) [%]",further results
86.8,76.5,"positive effect on casp-3,7 activity","C=C(C(=O)OCc1ccco1)C1CCC2(COC(C)=O)CCC3(C)C(CCC4C5(C)CCC(OC(C)=O)C(C)(C)C5CCC43C)C12 (stereo not drawn) [Compound 5, Furan-2-yl-methyl 3β,28-diacetyloxylup-20(29)-en-30-oate]",94.1,87.3,87.1,96.6,100.0,90.8,N/A (N/A = no protection),12.87 % of control,14.05 % of control,N/A (N/A = no protection),N/A (N/A = no protection),18.96 % of control,N/A (N/A = no protection),N/A (N/A = no protection),20.63 % of control,91.9,106.4,"protective effect on astrocytes in 3NPA model, in words ([3]; A-172 cells, comparison with R-LA): positive effect comparable to R-LA control; effect on SH-SY5Y viability in salsolinol model, in words ([4]; 800 μM salsolinol, comparison with NAC): better effect than 1000 μM NAC; efficacy relative to positive controls (by used concentration) ([6]; caspase-3,7 activity, salsolinol model): 10 fold; viability, percentage of DMSO control ([7]; 10 μM): 129.5%"
93.2,88.3,"positive effect on casp-3,7 activity","C=C(C(=O)OCc1cccs1)C1CCC2(COC(C)=O)CCC3(C)C(CCC4C5(C)CCC(OC(C)=O)C(C)(C)C5CCC43C)C12 (stereo not drawn) [Compound 6, Thiophen-2-ylmethyl 3β,28-diacetyloxy-lup-20(29)-en-30-oate]",92.2,89.9,88.0,99.9,98.4,96.2,4.27 % of control,4.57 % of control,7.45 % of control,N/A (N/A = no protection),N/A (N/A = no protection),7.38 % of control,N/A (N/A = no protection),N/A (N/A = no protection),20.53 % of control,92.1,96.2,"viability, percentage of DMSO control ([7]; 10 μM): 113.5%"
